What was measured:
SG3199 = compound: CC1=CN2[C@@H](C1)C=NC3=CC(=C(C=C3C2=O)OC)OCCCCCOC4=C(C=C5C(=C4)N=C[C@@H]6CC(=CN6C5=O)C)OC [SG3199]; settings: max 0.001 µM
In short: (§1)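 Cancer cell lines in 1536-well plates (7.5 μl DMEM/F12 or RPMI, 10% FBS) were held 24 hours at 37°C and 5% CO2 and then dosed for 72 hours at a final DMSO of typically 0.2%. Viability was taken from CellTiter-Glo 2.0 luminescence, scaled between blank-well and DMSO-well means. Curves were fitted as two-parameter logistic models with a non-linear mixed effects model, from which the single-agent IC50 was taken.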

MK-2206 = compound: NC1(c2ccc(-c3nc4ccn5c(=O)[nH]nc5c4cc3-c3ccccc3)cc2)CCC1 [MK-2206]; settings: max 10 µM
In short: as §1

AZD5991 = compound: Cc1c2c(nn1C)CSCc1cc(n(C)n1)CSc1cc(c3ccccc3c1)OCCCc1c(C(=O)O)n(C)c3c-2c(Cl)ccc13 [AZD5991]; settings: max 1 µM
In short: as §1

AZD7648 = compound: Cc1cc2ncnn2cc1Nc1ncc2c(n1)n(C1CCOCC1)c(=O)n2C [AZD7648]; settings: max 10 µM
In short: as §1

Dasatinib = compound: CC1=C(C(=CC=C1)Cl)NC(=O)C2=CN=C(S2)NC3=CC(=NC(=N3)C)N4CCN(CC4)CCO [Dasatinib]; settings: max 2 µM
In short: as §1

5-Fluorouracil = compound: O=c1[nH]cc(F)c(=O)[nH]1 [5-Fluorouracil]; settings: max 20 µM
In short: as §1

AZD1390 = compound: CC(C)n1c(=O)n(C)c2cnc3cc(F)c(-c4ccc(OCCCN5CCCCC5)nc4)cc3c21 [AZD1390]; settings: max 0.3 µM
In short: as §1

Etoposide = compound: COc1cc([C@@H]2c3cc4c(cc3[C@@H](O[C@@H]3O[C@@H]5CO[C@@H](C)O[C@H]5[C@H](O)[C@H]3O)[C@H]3COC(=O)[C@H]23)OCO4)cc(OC)c1O [Etoposide]; settings: max 10 µM
In short: as §1

AZD5153 = compound: COc1nnc2ccc(N3CCC(c4ccc(OCCN5CCN(C)C(=O)[C@H]5C)cc4)CC3)nn12 [AZD5153]; settings: max 1 µM
In short: as §1

Venetoclax = compound: CC1(C)CCC(CN2CCN(c3ccc(C(=O)NS(=O)(=O)c4ccc(NCC5CCOCC5)c([N+](=O)[O-])c4)c(Oc4cnc5[nH]ccc5c4)c3)CC2)=C(c2ccc(Cl)cc2)C1 [Venetoclax]; settings: max 1 µM
In short: as §1

Paclitaxel = compound: CC(=O)O[C@H]1C(=O)[C@@]2(C)[C@H]([C@H](OC(=O)c3ccccc3)[C@]3(O)C[C@H](OC(=O)[C@H](O)[C@@H](NC(=O)c4ccccc4)c4ccccc4)C(C)=C1C3(C)C)[C@]1(OC(C)=O)CO[C@@H]1C[C@@H]2O [Paclitaxel]; settings: max 3 µM
In short: as §1

Doxorubicin = compound: COc1cccc2c1C(=O)c1c(O)c3c(c(O)c1C2=O)C[C@@](O)(C(=O)CO)C[C@@H]3O[C@H]1C[C@H](N)[C@H](O)[C@H](C)O1 [Doxorubicin]; settings: max 1 µM
In short: as §1

AZD2811 = compound: CCN(CCO)CCCOc1ccc2c(Nc3cc(CC(=O)Nc4cccc(F)c4)[nH]n3)ncnc2c1 [AZD2811]; settings: max 1 µM
In short: as §1

AZD8186 = compound: C[C@@H](Nc1cc(F)cc(F)c1)c1cc(C(=O)N(C)C)cc2c(=O)cc(N3CCOCC3)oc12 [AZD8186]; settings: max 10 µM
In short: as §1

Prexasertib = compound: COc1cccc(OCCCN)c1-c1cc(Nc2cnc(C#N)cn2)n[nH]1 [Prexasertib]; settings: max 1 µM
In short: as §1

AZD6738 = compound: C[C@@H]1COCCN1C2=NC(=NC(=C2)C3(CC3)[S@](=N)(=O)C)C4=C5C=CNC5=NC=C4 [AZD6738]; settings: max 10 µM
In short: as §1

Taselisib = compound: Cc1nc(-c2cn3c(n2)-c2ccc(-c4cnn(C(C)(C)C(N)=O)c4)cc2OCC3)n(C(C)C)n1 [Taselisib]; settings: max 10 µM
In short: as §1

Crizotinib = compound: C[C@@H](Oc1cc(-c2cnn(C3CCNCC3)c2)cnc1N)c1c(Cl)ccc(F)c1Cl [Crizotinib]; settings: max 10 µM
In short: as §1

AZD0156 = compound: CN(C)CCCOc1ccc(-c2ccc3ncc4c(c3c2)n(C2CCOCC2)c(=O)n4C)cn1 [AZD0156]; settings: max 3 µM
In short: as §1

AZD1775 = compound: C=CCn1c(=O)c2cnc(Nc3ccc(N4CCN(C)CC4)cc3)nc2n1-c1cccc(C(C)(C)O)n1 [AZD1775]; settings: max 3 µM
In short: as §1

Selumetinib = compound: Cn1cnc2c(F)c(Nc3ccc(Br)cc3Cl)c(C(=O)NOCCO)cc21 [Selumetinib]; settings: max 10 µM
In short: as §1

Gefitinib = compound: COc1cc2ncnc(Nc3ccc(F)c(Cl)c3)c2cc1OCCCN1CCOCC1 [Gefitinib]; settings: max 10 µM
In short: as §1

[1] = compound: O=C(Nc1ccc2[nH]nc(-c3ccncc3)c2c1)[C@@H]1CCN(CC(=O)N2CCN(c3ccc(-c4ncccn4)cc3)CC2)C1; settings: max 5 µM
In short: as §1

Savolitinib = compound: C[C@@H](c1ccc2nccn2c1)n1nnc2ncc(-c3cnn(C)c3)nc21 [Savolitinib]; settings: max 1 µM
In short: as §1

SRA737 = compound: N#Cc1cnc(Nc2cc(NC[C@H]3CNCCO3)c(C(F)(F)F)cn2)cn1 [SRA737]; settings: max 10 µM
In short: as §1

Olaparib = compound: O=C(c1cc(Cc2n[nH]c(=O)c3ccccc23)ccc1F)N1CCN(C(=O)C2CC2)CC1 [Olaparib]; settings: max 10 µM
In short: as §1

SN-38 = compound: CCc1c2c(nc3ccc(O)cc13)-c1cc3c(c(=O)n1C2)COC(=O)[C@]3(O)CC [SN-38]; settings: max 0.3 µM
In short: as §1

Alisertib = compound: COc1cc(Nc2ncc3c(n2)-c2ccc(Cl)cc2C(c2c(F)cccc2OC)=NC3)ccc1C(=O)O [Alisertib]; settings: max 10 µM
In short: as §1

Gemcitabine = compound: Nc1ccn([C@@H]2O[C@H](CO)[C@@H](O)C2(F)F)c(=O)n1 [Gemcitabine]; settings: max 0.3 µM
In short: as §1

AZD5363 = compound: C1CN(CCC1(C(=O)N[C@@H](CCO)C2=CC=C(C=C2)Cl)N)C3=NC=NC4=C3C=CN4 [AZD5363]; settings: max 10 µM
In short: as §1

Palbociclib = compound: CC(=O)c1c(C)c2cnc(Nc3ccc(N4CCNCC4)cn3)nc2n(C2CCCC2)c1=O [Palbociclib]; settings: max 10 µM
In short: as §1

AZD4320 = compound: CN(CC[C@H](CSC1=CC=CC=C1)NC2=C(C=C(C=C2)S(=O)(=O)NC(=O)C3=CC=C(C=C3)N4CCC(CC4)[C@H](C5=CC=CC=C5C6=CC=C(C=C6)Cl)O)S(=O)(=O)C(F)(F)F)CCO [AZD4320]; settings: max 1 µM
In short: as §1

Lapatinib = compound: CS(=O)(=O)CCNCc1ccc(-c2ccc3ncnc(Nc4ccc(OCc5cccc(F)c5)c(Cl)c4)c3c2)o1 [Lapatinib]; settings: max 10 µM
In short: as §1

Carboplatin = compound: C1CC(C1)(C(=O)[O-])C(=O)[O-].N.N.[Pt+2] [Carboplatin]; settings: max 10 µM
In short: as §1

Trametinib = compound: CC(=O)Nc1cccc(-n2c(=O)n(C3CC3)c(=O)c3c(Nc4ccc(I)cc4F)n(C)c(=O)c(C)c32)c1 [Trametinib]; settings: max 1 µM
In short: as §1

Cell Line	IC50, cell viability 72 h (SG3199) [nM]	IC50, cell viability 72 h (MK-2206) [nM]	IC50, cell viability 72 h (AZD5991) [nM]	IC50, cell viability 72 h (AZD7648) [nM]	IC50, cell viability 72 h (Dasatinib) [nM]	IC50, cell viability 72 h (5-Fluorouracil) [nM]	IC50, cell viability 72 h (AZD1390) [nM]	IC50, cell viability 72 h (Etoposide) [nM]	IC50, cell viability 72 h (AZD5153) [nM]	IC50, cell viability 72 h (Venetoclax) [nM]	IC50, cell viability 72 h (Paclitaxel) [nM]	IC50, cell viability 72 h (Doxorubicin) [nM]	IC50, cell viability 72 h (AZD2811) [nM]	IC50, cell viability 72 h (AZD8186) [nM]	IC50, cell viability 72 h (Prexasertib) [nM]	IC50, cell viability 72 h (AZD6738) [nM]	IC50, cell viability 72 h (Taselisib) [nM]	IC50, cell viability 72 h (Crizotinib) [nM]	IC50, cell viability 72 h (AZD0156) [nM]	IC50, cell viability 72 h (AZD1775) [nM]	IC50, cell viability 72 h (Selumetinib) [nM]	IC50, cell viability 72 h (Gefitinib) [nM]	IC50, cell viability 72 h [1] [nM]	IC50, cell viability 72 h (Savolitinib) [nM]	IC50, cell viability 72 h (SRA737) [nM]	IC50, cell viability 72 h (Olaparib) [nM]	IC50, cell viability 72 h (SN-38) [nM]	IC50, cell viability 72 h (Alisertib) [nM]	IC50, cell viability 72 h (Gemcitabine) [nM]	IC50, cell viability 72 h (AZD5363) [nM]	IC50, cell viability 72 h (Palbociclib) [nM]	IC50, cell viability 72 h (AZD4320) [nM]	IC50, cell viability 72 h (Lapatinib) [nM]	IC50, cell viability 72 h (Carboplatin) [nM]	IC50, cell viability 72 h (Trametinib) [nM]
DB (B-Cell Non-Hodgkin's Lymphoma)	> 1	> 10000	109	> 10000	> 2000	> 20000	> 300	3690	210	119	5.71	251	537	> 10000	210	> 10000	> 10000	7970	> 3000	526	> 10000	> 10000	> 5000	> 1000	> 10000	> 10000	4.52	3880	8.96	> 10000	7680	143	> 10000	> 10000	> 1000
DOV13 (Ovarian Carcinoma)	> 1	> 10000	> 1000	> 10000	165	> 20000	> 300	2730	650	> 1000	31.7	308	980	> 10000	40.7	2130	4650	7020	> 3000	1110	> 10000	> 10000	> 5000	> 1000	> 10000	> 10000	9.35	1930	11.8	> 10000	2020	464	> 10000	> 10000	> 1000
DSH1 (Bladder Carcinoma)	> 1	> 10000	914	> 10000	> 2000	> 20000	> 300	7620	242	> 1000	146	306	> 1000	> 10000	153	4620	2240	> 10000	> 3000	1920	> 10000	792	2060	> 1000	> 10000	> 10000	26.8	> 10000	6.55	> 10000	> 10000	> 1000	457	> 10000	615
ES7 (Ewing's Sarcoma)	> 1	7750	861	> 10000	> 2000	12300	> 300	257	289	> 1000	3.3	38.8	25.4	2000	33	2440	3020	3360	> 3000	1070	> 10000	> 10000	> 5000	> 1000	7440	3820	1.13	249	6.44	> 10000	3870	204	> 10000	> 10000	> 1000
G-292-Clone-A141B1 (Osteosarcoma)	> 1	> 10000	> 1000	> 10000	> 2000	> 20000	> 300	> 10000	> 1000	> 1000	> 3000	> 1000	> 1000	> 10000	> 1000	> 10000	1160	> 10000	> 3000	> 3000	> 10000	> 10000	> 5000	> 1000	> 10000	> 10000	> 300	> 10000	> 300	> 10000	> 10000	> 1000	> 10000	> 10000	> 1000

Reference: the supplement of paper PMC11061612
